Measurements: patent publication US8268861B2, “P2X7R antagonists and their use” (Affectis Pharmaceuticals AG, priority 2009, dated 2012)

Columns and labels:
IL-1 beta secretion = IL-1 beta secretion by LPS/BzATP-stimulated isolated human monocytes (macrophages), ELISA; type: cell-based; conditions: 1 μg/mL LPS 2 hours, 100 μM BzATP 30 minutes, compound added 5 minutes before BzATP, FIG. 1, p<0.01
Experimental: The effects of compounds of the present invention on IL-1 beta secretion is assessed using isolated human monocytes.
Briefly, human monocytes were purified from human blood by Ficoll-Paque from Buffy coats as follows. The Buffy coat is a greyish white layer of white blood cells and platelets that accumulates on the surface of sedimented erythrocytes when blood is allowed to stand or is centrifuged. Each Buffy coat (one per donor) was diluted with PBS and 20 ml added on top of 15 ml of Ficoll-Paque. The gradient was centrifuged at 900 g for 20 min at room temperature. […] At day 5, the cells were counted, resuspended in RPMI 1640 supplemented with 5% human serum at a concentration of 1×10^6/ml and plated onto a 24 wells plate (5×10^5 cells/well). […]
The day of experiment, the macrophages were pre-stimulated for 2 hours with 1 μg/mL LPS at 37° C. […] After incubation, the supernatants were collected by centrifugation (250 g for 5 minutes) and IL-1β secretion was measured by using the human IL-1 beta/IL-1F2 Quantikine ELISA Kit following manufacturer's instructions. […] The O.D. at 450 nm was measured for each data points and the IL-1β concentration calculated based on a standard curve. The […] concentration was further calculated to have a concentration in pg/mL/10E+6 cells, together with its standard deviation.

human P2X7R = molecular target: T1, human P2X7R (Homo sapiens, UniProt Q99572); test: Inhibition of Bz-ATP-stimulated calcium influx in Hek293 cells stably transfected with human P2X7R (Fluo-4-AM); type: cell-based; conditions: Hek293 cells expressing human P2X7R, 100 μM Bz-ATP, 15 minute incubation with test compound
T1 construct: expressed in transfected cells
T1 sequence (Q99572 1-595): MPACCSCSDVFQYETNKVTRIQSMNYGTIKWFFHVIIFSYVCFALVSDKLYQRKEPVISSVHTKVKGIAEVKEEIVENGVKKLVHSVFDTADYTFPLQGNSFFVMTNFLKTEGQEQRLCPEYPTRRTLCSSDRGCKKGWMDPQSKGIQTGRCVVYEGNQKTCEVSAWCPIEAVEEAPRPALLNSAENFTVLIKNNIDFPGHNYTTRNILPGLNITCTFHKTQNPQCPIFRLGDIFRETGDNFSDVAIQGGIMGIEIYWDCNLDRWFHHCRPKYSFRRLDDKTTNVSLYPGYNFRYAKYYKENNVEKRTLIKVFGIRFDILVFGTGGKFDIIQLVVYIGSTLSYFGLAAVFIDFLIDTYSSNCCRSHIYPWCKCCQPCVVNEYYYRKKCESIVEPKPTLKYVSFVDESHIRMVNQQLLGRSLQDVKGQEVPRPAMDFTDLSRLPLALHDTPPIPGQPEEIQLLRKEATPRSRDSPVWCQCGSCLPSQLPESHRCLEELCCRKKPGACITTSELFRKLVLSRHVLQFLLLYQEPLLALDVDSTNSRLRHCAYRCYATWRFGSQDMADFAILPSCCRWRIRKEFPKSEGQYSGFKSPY
Experimental: Inhibition of P2X7R activity by the compounds of the present invention is assessed by measuring calcium influx in Hek293 cells (ECACC No. 85120602) which have been stably transfected with a cDNA for the human P2X7R.
Hek293 cells expressing P2X7R were generated by lipofectamine transfection of the human P2X7R cDNA (Genbank accession number BC011913) under the control of the human cytomegalovirus immediate-early (CMV) promoter and inserted into the pcDNA3.1 vector (Invitrogen). […]
Inhibition of Bz-ATP-stimulated P2X7R by test compounds was monitored by measuring changes in calcium influx using the Fluo-4-AM fluorescent dye according to the manufacturer's recommendations (Molecular Devices Corporation, U.S.A.). […] After a 15 minute incubation, 100 μM Bz-ATP was added and fluorescence was measured in a FlexStation II (Molecular Devices, U.S.A.) according to the following parameters: 485 nm Excitation Wavelength; 525 nm Emission Wavelength; 515 nm Emission Cut-off; 100 μl Pipette Height; 25 μl Transfer Volume; 5 fold Compound Concentration; 3 rate Addition Speed. […] The fluorescence data were processed using a lag time of 15 seconds, recording 45 seconds, zero baseline calibrated using 2 points, and % baseline multiplier set at 3. […]

- IC50 (human P2X7R): ~3.8 nM
Compound: O=C(CC1CCCCCC1)Nc1cn(CCO)c2cccc(Cl)c12 [Example 2, N-(4-chloro-1-(2-hydroxyethyl)-1H-indol-3-yl)-2-cycloheptylacetamide]
- IL-1beta secretion (IL-1 beta secretion): reduced IL-1beta secretion
